Measured values taken from ChEMBL document CHEMBL1155972, “From natural products to achiral drug prototypes: potent thrombin inhibitors based on P2/P3 dihydropyrid-2-one core motifs” (Bioorg Med Chem Lett, 2009).

Assays:
Prothrombin = Prothrombin (Homo sapiens, UniProt P00734); assay: Inhibition of human thrombin
[1] = Inhibition of bovine trypsin; design: species or system Bos taurus
[2] = Dissociation constant, pKa of the compound; type: physicochemical

SMILES | IC50 (Prothrombin) [nM] | IC50 [1] [nM] | pKa [2]
N=C(N)c1ccc(CNC(=O)[C@@H]2C[C@@H]3CCCC[C@@H]3N2C(=O)[C@H](NC(=O)[C@H](O)Cc2ccccc2)C(C2CCCCC2)C2CCCCC2)cc1 | 3.4 |  | 
Cc1ccn(NS(=O)(=O)Cc2ccccc2)c(=O)c1CC(=O)NCc1ccc(C(=N)N)cc1 | 3960 | 14900 | 
Cc1ccn(NS(=O)(=O)c2ccccc2)c(=O)c1CC(=O)NCc1ccc(C(=N)N)cc1 |  | 5770 | 5.9
CC1=C(CC(=O)NCc2ccc(C(=N)N)cc2)C(=O)N(NS(=O)(=O)c2cc(Cl)ccc2Cl)CC1 | 10 | 1250 | 
CC1=C(CC(=O)NCc2ccc(C(=N)N)cc2)C(=O)N(NS(=O)(=O)c2cccc3ccccc23)CC1 | 915 | 8.2 | 
Cc1ccn(NS(=O)(=O)c2cccc3ccccc23)c(=O)c1CC(=O)NCc1ccc(C(=N)N)cc1 | 17100 | 5.8 | 
COc1cccc(S(=O)(=O)NN2CCC(C)=C(CC(=O)NCc3ccc(C(=N)N)cc3)C2=O)c1 | 11 | 860 | 8.8
CO[C@H](COS(=O)(=O)[O-])C(=O)N[C@@H](C(=O)N1[C@H](C(=O)NCCC2=CC[N+](=C(N)N)C2)C[C@@H]2C[C@H](O)[C@@H](O)C[C@@H]21)[C@H](Cl)C(C)C [CHLORODYSINOSIN A] | 5.8 |  | 
CC1=C(CC(=O)NCc2ccc(C(=N)N)cc2)C(=O)N(NS(=O)(=O)c2ccccc2)CC1 | 42 | 766 | 
CC1=C(CC(=O)NCc2ccc(C(=N)N)cc2)C(=O)N(NS(=O)(=O)c2cc(C)ccc2C)CC1 | 6 | 374 | 8.7
CC1=C(CC(=O)NCc2ccc(C(=N)N)cc2)C(=O)N(NS(=O)(=O)c2c(C)cccc2Cl)CC1 | 3 | 286 | 
CO[C@H](COS(=O)(=O)[O-])C(=O)N[C@H](CC(C)C)C(=O)N1[C@H](C(=O)NCCC2=CC[N+](=C(N)N)C2)C[C@@H]2C[C@H](O)[C@@H](O)C[C@@H]21 [DYSINOSIN A] | 46 |  | 

More lines, now with the values ahead:

IC50 (Prothrombin) [nM] | IC50 [1] [nM] | pKa [2] | SMILES
3.3 |  |  | CC[C@@H](C)[C@@H](NC(=O)[C@H](O)Cc1ccccc1)C(=O)N1[C@H](C(=O)NCc2ccc(C(=N)N)cc2)C[C@@H]2CCCC[C@@H]21
106 | 683 |  | CC1=C(CC(=O)NCc2ccc(C(=N)N)cc2)C(=O)N(NS(=O)(=O)c2ccc(Cl)cc2F)CC1
 | 7130 |  | Cc1ccc(C)c(S(=O)(=O)Nn2ccc(C)c(CC(=O)NCc3ccc(C(=N)N)cc3)c2=O)c1
 | 15600 |  | COc1cccc(S(=O)(=O)Nn2ccc(C)c(CC(=O)NCc3ccc(C(=N)N)cc3)c2=O)c1
 | 2020 | 6.7 | COc1cc(C)ccc1S(=O)(=O)Nn1ccc(C)c(CC(=O)NCc2ccc(C(=N)N)cc2)c1=O
1.6 |  |  | CC(C)[C@@H](Cl)[C@@H](NC(=O)[C@H](O)Cc1ccccc1)C(=O)N1[C@H](C(=O)NCc2ccc(C(=N)N)cc2)C[C@@H]2CCCC[C@@H]21
44 | 117 |  | COc1cc(C)ccc1S(=O)(=O)NN1CCC(C)=C(CC(=O)NCc2ccc(C(=N)N)cc2)C1=O
